Reference: patent publication EP0804400B1, “HYDROFORMYLATION OF A MULTI-COMPONENT FEED STREAM” (ExxonMobil Research and Engineering Company, priority 1995, dated 1996)
Read-outs that look alike come from different tables or passages of the source.

Key:
[1] = 0.1 MPa partial pressure
Description: (§1) In the autoclave experiments the solvent was thoroughly degassed in the autoclave before the gas was charged without stirring. After a short temperature equilibration the pressure and temperature in the autoclave was recorded and then the solvent was stirred until no further pressure drop could be observed. From the known gas volume and pressure drop the amount of dissolved gas was calculated. In the ^1H NMR experiments either the solvent (propanal) or hexamethylbenzene served as an internal standard.

[2] = 0.1 MPa partial pressure, 22 °C; for Xi x 10^4: mol fraction; for Ci: molarity
Description: as §1

[3] = cited from earlier work; for Xi x 10^4: mol fraction; for Ci: molarity
[4] = mol fraction of gas in liquid phase, solvent Tetraglyme containing 7.8 w.% PPh3, 20 °C
[5] = mol fraction, solvent Tetraglyme containing 7.8 w.% PPh3, 100 °C
[6] = molarity of gas in liquid phase, solvent Tetraglyme containing 7.8 w.% PPh3, 20 °C
[7] = molarity, solvent Tetraglyme containing 7.8 w.% PPh3, 100 °C
[8] = solvent 2-Methylbutanal, 30 °C, ref. e
[9] = solvent 2-Methylbutanal, 100 °C, ref. e
[10] = solvent Formaldehyde diethyl acetal, 30 °C, ref. g
[11] = solvent 1-Butyl acetate, 18 °C, ref. l
[12] = solvent 1-Propyl acetate, 18 °C, ref. l
[13] = solvent 2-Ethylhexanol-1, 100 °C, ref. w
[14] = solvent 2-Propyl acetate, 18 °C, ref. l
[15] = solvent Ethyl acetate, 18 °C, ref. l
[16] = solvent Ethylene glycol dimethyl (ether), 100 °C, ref. t
[17] = solvent Methyl acetate, 18 °C, ref. l
[18] = solvent Methyl butanoate, 18 °C, ref. l
[19] = solvent Methyl propanoate, 18 °C, ref. l
[20] = solvent Propionaldehyde, 100 °C, ref. k
[21] = solvent cell prints 'ether' (wrapped line), 100 °C, ref. v

Structure (SMILES): C#C [Acetylene]
- Xi x 10^4 [1, 4]: 1224.0
- Xi x 10^4 [1, 5]: 242.0
- Xi x 10^4 ([1]; mol fraction, solvent Toluene, 20 °C): 246.7
- Xi x 10^4 ([1]; mol fraction, solvent Toluene, 100 °C): 178.0
- Ci [1, 6]: 577.0 mmol/L
- Ci [1, 7]: 103.0 mmol/L
- Ci ([1]; molarity, solvent Toluene, 20 °C): 220.6 mmol/L
- Ci ([1]; molarity, solvent Toluene, 100 °C): 147.7 mmol/L
- Xi x 10^4 ([2]; solvent Propanal): 402.0
- Ci ([2]; solvent Propanal): 557.7 mmol/L

Structure (SMILES): [C-]#[O+] [Carbon monoxide]
- Xi x 10^4 [1, 4]: 11.3
- Xi x 10^4 [1, 5]: 34.6
- Ci [1, 6]: 4.9 mmol/L
- Ci [1, 7]: 14.2 mmol/L
- Xi x 10^4 [3, 8]: 10.96
- Xi x 10^4 [3, 9]: 13.93

Structure (SMILES): CC [Ethane]
- Xi x 10^4 [3, 10]: 214.00
- Ci [3, 10]: 201.89 mmol/L

Structure (SMILES): C=C [Ethylene]
- Xi x 10^4 [1, 4]: 134.0
- Xi x 10^4 [1, 5]: 76.0
- Ci [1, 6]: 60.0 mmol/L
- Ci [1, 7]: 32.6 mmol/L
- Xi x 10^4 ([2]; solvent Propanal): 115.0
- Ci ([2]; solvent Propanal): 159.6 mmol/L
- Xi x 10^4 [3, 10]: 185.00
- Ci [3, 10]: 174.53 mmol/L

Structure (SMILES): [HH] [Hydrogen]
- Xi x 10^4 [1, 4]: 5.1
- Xi x 10^4 [1, 5]: 7.3
- Ci [1, 6]: 2.2 mmol/L
- Ci [1, 7]: 3.0 mmol/L
- Xi x 10^4 ([2]; solvent d^8-Toluene): 3.5
- Xi x 10^4 [3, 11]: 4.29
- Xi x 10^4 [3, 12]: 4.15
- Xi x 10^4 [3, 13]: 5.85
- Xi x 10^4 [3, 8]: 8.55
- Xi x 10^4 [3, 9]: 11.45
- Xi x 10^4 [3, 14]: 4.83
- Xi x 10^4 [3, 15]: 3.46
- Xi x 10^4 [3, 16]: 6.20
- Xi x 10^4 [3, 10]: 5.37
- Xi x 10^4 [3, 17]: 2.51
- Xi x 10^4 [3, 18]: 4.67
- Xi x 10^4 [3, 19]: 3.77
- Xi x 10^4 [3, 20]: 5.95
- Xi x 10^4 [3, 21]: 6.58
- Xi x 10^4 ([3]; solvent printed 2-Ethylhexanol-1 (second line), 100 °C, ref. v): 5.97
- Ci [3, 11]: 3.64 mmol/L
- Ci [3, 12]: 3.99 mmol/L
- Ci [3, 13]: 3.45 mmol/L
- Ci [3, 14]: 4.64 mmol/L
- Ci [3, 15]: 3.84 mmol/L
- Ci [3, 16]: 5.32 mmol/L
- Ci [3, 10]: 5.07 mmol/L
- Ci [3, 17]: 3.30 mmol/L
- Ci [3, 18]: 4.49 mmol/L
- Ci [3, 19]: 4.19 mmol/L
- Ci [3, 21]: 3.89 mmol/L

Structure (SMILES): C [Methane]
- Xi x 10^4 [3, 10]: 37.40
- Xi x 10^4 [3, 20]: 20.90
